From US9493455B2, “Azaindole derivatives as inhibitors of protein kinases” (ORIBASE PHARMA, priority 2012, dated 2016)

How the values were obtained:
ABL = molecular target: T1, ABL (Homo sapiens, UniProt P00519); assay: In vitro kinase assay (Z′-LYTE); format: biochemical; conditions: read-out: % of inhibition of the kinase compared to the control
T1 construct: purchased Invitrogen

ABL E255K = molecular target: T2, ABL E255K (Homo sapiens, UniProt P00519, E255K); assay: In vitro kinase assay (Z′-LYTE); format: biochemical; conditions: read-out: percent inhibition of the kinase compared to the control
T2 construct: purchased Invitrogen
Method in brief: (§1)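 Z′-LYTE FRET peptide-cleavage assay, emission ratio after 400 nm excitation; compound tested at 100 nM in 1% DMSO final. Kinase buffer 50 mM HEPES pH 7.5, 0.01% BRIJ-35, 10 mM MgCl2, 1 mM EGTA, ATP at previously determined apparent Km; read as percent inhibition.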

ABL G250E = molecular target: T3, ABL G250E (Homo sapiens, UniProt P00519, G250E); assay: In vitro kinase assay (Z′-LYTE); format: biochemical; conditions: read-out: percent inhibition of the kinase compared to the control
T3 construct: purchased Invitrogen
Method in brief: as §1

ABL T315I = molecular target: T4, ABL T315I (Homo sapiens, UniProt P00519, T315I); assay: In vitro kinase assay (Z′-LYTE); format: biochemical; conditions: read-out: % of inhibition of the kinase compared to the control
T4 construct: purchased Invitrogen
Method in brief: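 Z′-LYTE FRET assay: kinase phosphorylation of a dual-fluorophore peptide protects it from protease cleavage, and the donor/acceptor emission ratio after 400 nm excitation tracks progress. Compounds were tested at 100 nM, or at 10 μM against ABL T315I, in 1% DMSO final, with ATP at apparent Km.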

ABL Y253F = molecular target: T5, ABL Y253F (Homo sapiens, UniProt P00519, Y253F); assay: In vitro kinase assay (Z′-LYTE); format: biochemical; conditions: read-out: percent inhibition of the kinase compared to the control
T5 construct: purchased Invitrogen
Method in brief: as §1

BLK = molecular target: T6, BLK (Homo sapiens, UniProt P51451); assay: In vitro kinase assay (Z′-LYTE); format: biochemical; conditions: read-out: percent inhibition of the kinase compared to the control
T6 construct: purchased Invitrogen
Method in brief: as §1

BMX = molecular target: T7, BMX (Homo sapiens, UniProt P51813); assay: In vitro kinase assay (Z′-LYTE); format: biochemical; conditions: read-out: percent inhibition of the kinase compared to the control
T7 construct: purchased Invitrogen
Method in brief: as §1

BRAF = molecular target: T8, BRAF (Homo sapiens, UniProt P15056); assay: In vitro kinase assay (Z′-LYTE); format: biochemical; conditions: compound 100 nM; ATP 100 μM; read-out: % of inhibition of the kinase compared to the control
T8 construct: purchased Invitrogen
T8 sequence (P15056 whole entry): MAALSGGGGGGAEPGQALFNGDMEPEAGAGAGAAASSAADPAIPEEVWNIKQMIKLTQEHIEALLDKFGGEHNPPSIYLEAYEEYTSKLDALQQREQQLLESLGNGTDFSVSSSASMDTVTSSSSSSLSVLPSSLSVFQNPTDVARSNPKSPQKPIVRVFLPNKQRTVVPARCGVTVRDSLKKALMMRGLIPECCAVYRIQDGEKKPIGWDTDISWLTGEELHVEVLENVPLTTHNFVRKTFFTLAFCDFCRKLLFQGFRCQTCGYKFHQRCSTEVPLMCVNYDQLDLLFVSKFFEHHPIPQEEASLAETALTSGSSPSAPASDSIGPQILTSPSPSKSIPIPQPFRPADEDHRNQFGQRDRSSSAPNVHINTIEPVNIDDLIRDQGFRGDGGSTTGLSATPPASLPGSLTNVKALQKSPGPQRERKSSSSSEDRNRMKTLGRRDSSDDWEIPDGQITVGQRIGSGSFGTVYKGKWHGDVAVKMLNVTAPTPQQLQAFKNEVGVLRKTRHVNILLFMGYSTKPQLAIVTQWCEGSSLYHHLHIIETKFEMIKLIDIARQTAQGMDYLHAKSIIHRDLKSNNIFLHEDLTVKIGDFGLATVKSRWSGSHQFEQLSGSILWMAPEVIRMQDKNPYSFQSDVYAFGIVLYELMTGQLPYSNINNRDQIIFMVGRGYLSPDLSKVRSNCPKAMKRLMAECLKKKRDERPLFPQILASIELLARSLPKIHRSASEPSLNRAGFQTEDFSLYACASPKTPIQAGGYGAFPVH
Method in brief: as §1

BRAF V600E = molecular target: T9, BRAF V600E (Homo sapiens, UniProt P15056, V600E); assay: In vitro kinase assay (Z′-LYTE); format: biochemical; conditions: read-out: percent inhibition of the kinase compared to the control
T9 construct: purchased Invitrogen
T9 sequence (P15056 whole entry V600E): as the sequence (P15056 whole entry) above, with V600E counted along it
Method in brief: as §1

BTK = molecular target: T10, BTK (Homo sapiens, UniProt Q06187); assay: In vitro kinase assay (Z′-LYTE); format: biochemical; conditions: read-out: percent inhibition of the kinase compared to the control
T10 construct: purchased Invitrogen
Method in brief: as §1

EGFR (ErbB1) T790M L858R = molecular target: T11, EGFR (ErbB1) T790M L858R (Homo sapiens, UniProt P00533, L858R/T790M); assay: In vitro kinase assay (Z′-LYTE); format: biochemical; conditions: read-out: % of inhibition of the kinase compared to the control
T11 construct: purchased Invitrogen
Method in brief: as §1

ERK2 = molecular target: T12, ERK2 (Homo sapiens, UniProt P28482); assay: In vitro kinase assay (Z′-LYTE); format: biochemical; conditions: read-out: percent inhibition of the kinase compared to the control
T12 construct: purchased Invitrogen
Method in brief: as §1

FGFR1 = molecular target: T13, FGFR1 (Homo sapiens, UniProt P11362); assay: In vitro kinase assay (Z′-LYTE); format: biochemical; conditions: read-out: % of inhibition of the kinase compared to the control
T13 construct: purchased Invitrogen
Method in brief: as §1

FGR = molecular target: T14, FGR (Homo sapiens, UniProt P09769); assay: In vitro kinase assay (Z′-LYTE); format: biochemical; conditions: read-out: percent inhibition of the kinase compared to the control
T14 construct: purchased Invitrogen
T14 sequence (P09769 whole entry): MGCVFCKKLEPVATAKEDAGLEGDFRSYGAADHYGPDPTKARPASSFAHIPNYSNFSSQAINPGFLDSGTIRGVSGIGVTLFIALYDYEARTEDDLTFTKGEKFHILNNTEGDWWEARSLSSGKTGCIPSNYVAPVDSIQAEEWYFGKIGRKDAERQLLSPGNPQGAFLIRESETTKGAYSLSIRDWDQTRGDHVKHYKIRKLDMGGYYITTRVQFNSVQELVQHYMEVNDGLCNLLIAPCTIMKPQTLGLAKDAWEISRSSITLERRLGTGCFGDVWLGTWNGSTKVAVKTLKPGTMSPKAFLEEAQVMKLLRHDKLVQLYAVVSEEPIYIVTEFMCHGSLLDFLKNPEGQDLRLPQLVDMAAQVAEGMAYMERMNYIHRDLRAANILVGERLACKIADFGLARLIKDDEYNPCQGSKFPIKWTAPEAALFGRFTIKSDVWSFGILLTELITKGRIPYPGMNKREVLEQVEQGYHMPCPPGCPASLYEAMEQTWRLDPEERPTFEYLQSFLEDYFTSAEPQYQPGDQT
Method in brief: as §1

FLT3 = molecular target: T15, FLT3 (Homo sapiens, UniProt P36888); assay: In vitro kinase assay (Z′-LYTE); format: biochemical; conditions: read-out: percent inhibition of the kinase compared to the control
T15 construct: purchased Invitrogen
Method in brief: as §1

FMS = molecular target: T16, FMS (Homo sapiens, UniProt P07333); assay: In vitro kinase assay (Z′-LYTE); format: biochemical; conditions: read-out: percent inhibition of the kinase compared to the control
T16 construct: purchased Invitrogen
Method in brief: as §1

FYN = molecular target: T17, FYN (Homo sapiens, UniProt P06241); assay: In vitro kinase assay (Z′-LYTE); format: biochemical; conditions: read-out: percent inhibition of the kinase compared to the control
T17 construct: purchased Invitrogen
T17 sequence (P06241 whole entry): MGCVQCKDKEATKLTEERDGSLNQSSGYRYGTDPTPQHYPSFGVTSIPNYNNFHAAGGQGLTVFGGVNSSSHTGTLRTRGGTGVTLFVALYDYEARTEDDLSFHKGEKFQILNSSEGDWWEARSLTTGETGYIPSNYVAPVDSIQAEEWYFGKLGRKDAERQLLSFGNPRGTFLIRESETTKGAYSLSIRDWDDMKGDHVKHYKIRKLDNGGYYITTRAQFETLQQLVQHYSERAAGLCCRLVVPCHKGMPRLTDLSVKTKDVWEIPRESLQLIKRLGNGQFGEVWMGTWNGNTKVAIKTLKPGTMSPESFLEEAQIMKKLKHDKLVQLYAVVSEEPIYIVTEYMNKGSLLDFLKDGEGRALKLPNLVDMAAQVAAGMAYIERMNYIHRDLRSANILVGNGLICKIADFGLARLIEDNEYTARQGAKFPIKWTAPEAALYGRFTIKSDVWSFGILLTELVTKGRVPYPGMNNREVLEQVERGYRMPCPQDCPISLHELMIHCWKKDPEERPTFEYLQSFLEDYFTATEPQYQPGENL
Method in brief: as §1

HCK = molecular target: T18, HCK (Homo sapiens, UniProt P08631); assay: In vitro kinase assay (Z′-LYTE); format: biochemical; conditions: read-out: percent inhibition of the kinase compared to the control
T18 construct: purchased Invitrogen
T18 sequence (P08631 whole entry): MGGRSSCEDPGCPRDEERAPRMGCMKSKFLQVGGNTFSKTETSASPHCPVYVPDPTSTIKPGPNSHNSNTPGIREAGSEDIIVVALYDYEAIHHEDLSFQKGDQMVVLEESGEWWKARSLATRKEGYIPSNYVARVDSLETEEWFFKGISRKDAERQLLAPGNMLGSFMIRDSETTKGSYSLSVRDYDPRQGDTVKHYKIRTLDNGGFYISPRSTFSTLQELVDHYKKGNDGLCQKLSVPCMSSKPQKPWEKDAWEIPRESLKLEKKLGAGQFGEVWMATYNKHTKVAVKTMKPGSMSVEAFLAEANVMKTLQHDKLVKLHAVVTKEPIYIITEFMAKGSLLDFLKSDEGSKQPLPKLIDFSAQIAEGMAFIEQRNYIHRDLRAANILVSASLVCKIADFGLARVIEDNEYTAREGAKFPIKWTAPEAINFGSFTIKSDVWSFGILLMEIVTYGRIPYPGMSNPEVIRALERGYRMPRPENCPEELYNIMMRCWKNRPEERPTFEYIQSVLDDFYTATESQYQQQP
Method in brief: as §1

HER2 = molecular target: T19, HER2 (Homo sapiens, UniProt P04626); assay: In vitro kinase assay (Z′-LYTE); format: biochemical; conditions: read-out: percent inhibition of the kinase compared to the control
T19 construct: purchased Invitrogen
T19 sequence (P04626 23-1255): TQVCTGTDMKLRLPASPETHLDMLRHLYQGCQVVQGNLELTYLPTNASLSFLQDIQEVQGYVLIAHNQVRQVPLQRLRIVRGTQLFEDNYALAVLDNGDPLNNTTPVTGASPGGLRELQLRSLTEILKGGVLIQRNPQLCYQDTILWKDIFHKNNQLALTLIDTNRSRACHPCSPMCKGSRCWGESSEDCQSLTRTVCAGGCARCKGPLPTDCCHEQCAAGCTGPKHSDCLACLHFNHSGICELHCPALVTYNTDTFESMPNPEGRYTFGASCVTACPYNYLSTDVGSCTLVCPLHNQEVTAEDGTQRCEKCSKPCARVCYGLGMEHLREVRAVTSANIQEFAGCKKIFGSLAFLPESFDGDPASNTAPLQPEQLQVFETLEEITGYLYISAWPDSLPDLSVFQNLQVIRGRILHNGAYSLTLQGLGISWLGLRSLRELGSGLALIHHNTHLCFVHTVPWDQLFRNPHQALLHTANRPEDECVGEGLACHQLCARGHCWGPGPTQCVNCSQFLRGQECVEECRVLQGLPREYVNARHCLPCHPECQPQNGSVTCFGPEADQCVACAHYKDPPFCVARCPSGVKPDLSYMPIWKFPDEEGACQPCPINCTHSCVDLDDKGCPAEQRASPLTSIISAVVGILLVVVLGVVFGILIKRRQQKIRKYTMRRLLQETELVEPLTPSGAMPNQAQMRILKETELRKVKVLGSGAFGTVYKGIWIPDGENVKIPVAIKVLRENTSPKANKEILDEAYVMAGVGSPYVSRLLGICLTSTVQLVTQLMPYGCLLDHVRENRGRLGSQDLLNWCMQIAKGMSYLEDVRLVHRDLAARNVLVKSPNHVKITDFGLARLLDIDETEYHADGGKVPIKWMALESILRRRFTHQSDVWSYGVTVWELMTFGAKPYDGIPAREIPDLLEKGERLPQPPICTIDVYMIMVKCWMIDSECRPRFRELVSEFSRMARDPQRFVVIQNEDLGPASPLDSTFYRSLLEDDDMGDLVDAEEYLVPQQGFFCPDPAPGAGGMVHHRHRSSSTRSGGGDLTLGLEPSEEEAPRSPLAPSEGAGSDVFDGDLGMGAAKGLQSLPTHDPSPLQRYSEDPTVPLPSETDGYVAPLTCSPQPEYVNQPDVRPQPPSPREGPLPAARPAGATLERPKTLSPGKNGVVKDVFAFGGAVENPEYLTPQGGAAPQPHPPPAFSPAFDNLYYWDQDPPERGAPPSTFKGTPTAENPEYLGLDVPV
Method in brief: as §1

LCK = molecular target: T20, LCK (Homo sapiens, UniProt P06239); assay: In vitro kinase assay (Z′-LYTE); format: biochemical; conditions: read-out: percent inhibition of the kinase compared to the control
T20 construct: purchased Invitrogen
T20 sequence (P06239 whole entry): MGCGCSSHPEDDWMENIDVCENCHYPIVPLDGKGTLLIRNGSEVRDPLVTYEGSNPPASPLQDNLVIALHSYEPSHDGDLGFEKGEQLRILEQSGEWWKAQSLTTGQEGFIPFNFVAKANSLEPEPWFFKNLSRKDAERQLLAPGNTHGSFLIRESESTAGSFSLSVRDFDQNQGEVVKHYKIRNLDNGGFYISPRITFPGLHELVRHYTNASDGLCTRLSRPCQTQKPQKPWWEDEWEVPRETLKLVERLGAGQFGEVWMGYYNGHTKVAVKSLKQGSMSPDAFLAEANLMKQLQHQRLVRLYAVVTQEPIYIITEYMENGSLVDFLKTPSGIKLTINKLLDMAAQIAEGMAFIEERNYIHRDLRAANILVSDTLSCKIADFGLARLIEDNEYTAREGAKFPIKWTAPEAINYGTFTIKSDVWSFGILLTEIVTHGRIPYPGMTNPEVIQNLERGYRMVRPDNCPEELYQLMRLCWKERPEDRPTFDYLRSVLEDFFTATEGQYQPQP
Method in brief: as §1

LYN A = molecular target: T21, LYN A (Homo sapiens, UniProt P07948); assay: In vitro kinase assay (Z′-LYTE); format: biochemical; conditions: read-out: percent inhibition of the kinase compared to the control
T21 construct: purchased Invitrogen
Method in brief: as §1

MAPK14 = molecular target: T22, MAPK14 (Homo sapiens, UniProt Q16539); assay: In vitro kinase assay (Z′-LYTE); format: biochemical; conditions: read-out: percent inhibition of the kinase compared to the control
T22 construct: purchased Invitrogen
T22 sequence (Q16539 whole entry): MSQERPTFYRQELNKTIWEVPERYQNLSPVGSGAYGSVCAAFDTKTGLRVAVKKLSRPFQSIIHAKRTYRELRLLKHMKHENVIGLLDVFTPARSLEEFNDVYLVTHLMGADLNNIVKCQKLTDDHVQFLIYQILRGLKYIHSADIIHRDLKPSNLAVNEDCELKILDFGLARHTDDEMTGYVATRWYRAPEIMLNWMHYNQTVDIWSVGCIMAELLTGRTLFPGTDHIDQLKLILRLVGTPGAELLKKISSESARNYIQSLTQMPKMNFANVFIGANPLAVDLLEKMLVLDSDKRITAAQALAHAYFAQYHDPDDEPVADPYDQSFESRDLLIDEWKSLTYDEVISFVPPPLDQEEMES
Method in brief: as §1

PDGFRA (PDGFR alpha) = molecular target: T23, PDGFRA (PDGFR alpha) (Homo sapiens, UniProt P16234); assay: In vitro kinase assay (Z′-LYTE); format: biochemical; conditions: read-out: % of inhibition of the kinase compared to the control
T23 construct: purchased Invitrogen
Method in brief: as §1

PDGFRB = molecular target: T24, PDGFRB (Homo sapiens, UniProt P09619); assay: In vitro kinase assay (Z′-LYTE); format: biochemical; conditions: read-out: % of inhibition of the kinase compared to the control
T24 construct: purchased Invitrogen
Method in brief: as §1

RET = molecular target: T25, RET (Homo sapiens, UniProt P07949); assay: In vitro kinase assay (Z′-LYTE); format: biochemical; conditions: read-out: percent inhibition of the kinase compared to the control
T25 construct: purchased Invitrogen
Method in brief: as §1

SRC = molecular target: T26, SRC (Homo sapiens, UniProt P12931); assay: In vitro kinase assay (Z′-LYTE); format: biochemical; conditions: read-out: % of inhibition of the kinase compared to the control
T26 construct: purchased Invitrogen
T26 sequence (P12931 whole entry): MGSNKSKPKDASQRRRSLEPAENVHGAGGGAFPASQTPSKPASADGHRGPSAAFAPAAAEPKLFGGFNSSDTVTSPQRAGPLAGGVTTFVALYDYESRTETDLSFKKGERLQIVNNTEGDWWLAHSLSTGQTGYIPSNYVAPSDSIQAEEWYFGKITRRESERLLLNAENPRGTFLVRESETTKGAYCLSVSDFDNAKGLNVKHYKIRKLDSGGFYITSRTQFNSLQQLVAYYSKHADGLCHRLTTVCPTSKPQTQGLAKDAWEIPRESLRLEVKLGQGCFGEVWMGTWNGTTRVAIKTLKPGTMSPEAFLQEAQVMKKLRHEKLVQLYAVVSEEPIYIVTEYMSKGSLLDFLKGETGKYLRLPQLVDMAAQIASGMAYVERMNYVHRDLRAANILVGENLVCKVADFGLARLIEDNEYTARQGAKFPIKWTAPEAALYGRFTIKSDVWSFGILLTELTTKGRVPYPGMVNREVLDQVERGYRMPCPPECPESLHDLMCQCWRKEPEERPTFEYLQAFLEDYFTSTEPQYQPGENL
Method in brief: as §1

VEGFR3 = molecular target: T27, VEGFR3 (Homo sapiens, UniProt P35916); assay: In vitro kinase assay (Z′-LYTE); format: biochemical; conditions: read-out: percent inhibition of the kinase compared to the control
T27 construct: purchased Invitrogen
Method in brief: as §1

YES = molecular target: T28, YES (Homo sapiens, UniProt P07947); assay: In vitro kinase assay (Z′-LYTE); format: biochemical; conditions: read-out: percent inhibition of the kinase compared to the control
T28 construct: purchased Invitrogen
Method in brief: as §1

A549 = assay: In vitro cell proliferation assay (MTT); format: cell-based; conditions: Homo sapiens, A549, 72 h
Method in brief: (§2)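 Seed 5×10^3 cells per well. Add compound at rising doses (10 nM to 3 μM), run in duplicate. Incubate 72 hr, then quantify growth with MTT.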

HeLa = assay: In vitro cell proliferation assay (MTT); format: cell-based; conditions: Homo sapiens, 72 h
Method in brief: as §2

inhibition at 10 µM (ABL): ≥ 50%
inhibition at 0.1 µM (ABL E255K): > 50%
inhibition at 0.1 µM (ABL G250E): > 50%
inhibition at 10 µM (ABL T315I): ≥ 50%
inhibition at 0.1 µM (ABL Y253F): > 50%
inhibition at 0.1 µM (BLK): > 50%
inhibition at 0.1 µM (BMX): > 50%
inhibition at 0.1 µM (BRAF): ≥ 50%
inhibition at 0.1 µM (BRAF V600E): > 50%
inhibition at 0.1 µM (BTK): > 50%
inhibition at 0.1 µM (EGFR (ErbB1) T790M L858R): < 50%
inhibition at 0.1 µM (ERK2): > 50%
inhibition at 0.1 µM (FGFR1): ≥ 50%
inhibition at 0.1 µM (FGR): > 50%
inhibition at 0.1 µM (FLT3): > 50%
inhibition at 0.1 µM (FMS): > 50%
inhibition at 0.1 µM (FYN): > 50%
inhibition at 0.1 µM (HCK): > 50%
inhibition at 0.1 µM (HER2): > 50%
inhibition at 0.1 µM (LCK): > 50%
inhibition at 0.1 µM (LYN A): > 50%
inhibition at 0.1 µM (MAPK14): > 50%
inhibition at 0.1 µM (PDGFRA (PDGFR alpha)): ≥ 50%
inhibition at 0.1 µM (PDGFRB): ≥ 50%
inhibition at 0.1 µM (RET): > 50%
inhibition at 0.1 µM (SRC): ≥ 50%
inhibition at 0.1 µM (VEGFR3): > 50%
inhibition at 0.1 µM (YES): > 50%
EC50 (A549): ≤ 100 nM
EC50 (HeLa): 100 to 1000 nM
SMILES: COC(=O)c1cc2cc(NCc3cc(NC(=O)c4ccc(CN5CCN(C)CC5)c(C(F)(F)F)c4)ccc3C)cnc2[nH]1 [OR0512]
